Laboratory results taken from US11464854B2, “Methods and compositions relating to adjuvants” (Children's Medical Center Corporation, priority 2017, dated 2022).

Key:
[1] = system: influenza hemagglutinin (HA); experiment: Mouse immunization with influenza hemagglutinin (HA), HA-specific serum Ig by ELISA; assay type: in vivo, Balb/c mice; details: three times, Day 77
human TLR7 = biological target: T1, human TLR7 (Homo sapiens, UniProt Q9NYK1); details: HEK293 cells stably expressing human TLR7 (ref. 24); cited from earlier work
T1 construct: host or cells: HEK293 with NF-kB-responsive SEAP reporter
T1 sequence (Q9NYK1 27-1049): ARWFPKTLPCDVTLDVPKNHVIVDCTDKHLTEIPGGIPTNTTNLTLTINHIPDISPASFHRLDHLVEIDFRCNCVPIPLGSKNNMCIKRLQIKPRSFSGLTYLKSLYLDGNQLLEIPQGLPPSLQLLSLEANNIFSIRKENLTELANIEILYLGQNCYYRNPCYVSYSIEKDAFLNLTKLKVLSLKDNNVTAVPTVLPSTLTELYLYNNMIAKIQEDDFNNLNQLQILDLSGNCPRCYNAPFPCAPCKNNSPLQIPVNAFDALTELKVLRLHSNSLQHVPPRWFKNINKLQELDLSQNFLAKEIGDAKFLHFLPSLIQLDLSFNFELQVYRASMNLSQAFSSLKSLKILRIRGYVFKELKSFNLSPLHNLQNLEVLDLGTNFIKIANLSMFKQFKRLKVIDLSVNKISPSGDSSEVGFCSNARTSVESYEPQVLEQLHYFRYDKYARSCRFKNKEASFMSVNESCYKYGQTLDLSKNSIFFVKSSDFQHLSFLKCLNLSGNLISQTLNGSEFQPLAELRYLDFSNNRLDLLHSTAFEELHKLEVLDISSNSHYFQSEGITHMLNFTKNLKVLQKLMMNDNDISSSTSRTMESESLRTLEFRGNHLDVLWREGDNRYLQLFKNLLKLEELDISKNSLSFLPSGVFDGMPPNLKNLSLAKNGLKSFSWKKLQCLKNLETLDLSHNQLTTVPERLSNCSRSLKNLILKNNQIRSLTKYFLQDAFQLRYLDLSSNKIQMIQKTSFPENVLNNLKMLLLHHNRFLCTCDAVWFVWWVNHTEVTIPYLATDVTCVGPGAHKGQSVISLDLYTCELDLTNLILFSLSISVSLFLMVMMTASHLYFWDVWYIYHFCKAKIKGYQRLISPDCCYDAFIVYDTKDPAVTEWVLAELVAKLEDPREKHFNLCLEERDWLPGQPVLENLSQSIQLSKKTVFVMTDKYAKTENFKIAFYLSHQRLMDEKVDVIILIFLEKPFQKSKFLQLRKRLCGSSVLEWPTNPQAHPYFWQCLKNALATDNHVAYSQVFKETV

[2] = system: human neonatal and adult blood; experiment: Human whole blood assay, cytokine induction (CRX adjuvants); assay type: cell-based
Description: Human blood was anti-coagulated with 20 units/ml pyrogen-free sodium heparin (American Pharmaceutical Partners, Inc.; Schaumberg, Ill.). All blood products were kept at room temperature and processed within 4 hours from collection. Human whole blood assays were completed as previously described. Briefly, neonatal cord blood or adult whole blood (WB) was mixed 1:1 with sterile pre-warmed (37° C.) RPMI 1640 medium (Invitrogen; Carlsbad, Calif.) and 180-225 μl of the 1:1 suspension was added to each well of a 96 well U-bottom plate (Becton Dickinson; Franklin Lakes, N.J., USA) containing 20-25 μl freshly prepared specific TLRAs at 10× the final concentration. Suspensions containing 200-250 μl/well were gently mixed by pipetting and incubated for 6 hours at 37° C. in a humidified incubator at 5%, CO2. After culture, plates were centrifuged at 500×g and ˜100-150 μl of supernatant was carefully removed by pipetting without disturbing the cell pellet. Supernatants derived from human leukocyte stimulations were assayed by ELISA for TNF and IFNγ (BD Biosciences; San Jose, Calif., USA).
Additionally, for both newborn and adult readouts, cytokine and chemokine expression profiles in cell culture supernatants and peripheral blood plasma were measured using customized Milliplex™ human cytokine/chemokine magnetic bead panels (Millipore; Billerica, Mass., USA). Assays were analyzed on the Luminex® 100/200™ System employing xPOTENT® software (Luminex; Austin, Tex.) and Millipore Milliplex Analyst™ (version 3.5.5.0). The minimum threshold for each analyte was set at the minimum detectable concentration for a given assay, defined as three standard deviations above the mean background. CL075 (TLR8/7) was purchased from InvivoGen (San Diego, Calif.) and used at the concentrations noted in the figure legends.

adult human PBMCs = experiment: Adult human PBMC stimulation
[3] = 1 μM and 10 μM, newborn over adult whole blood

Structure (SMILES) | antigen-specific IgG levels (IgG1, IgG2a) ([1]; HA 10 μg with 0.01-1 mg/kg 3M-052 SC) | HA-specific IgG2a Ab production ([1]; added to Alum-adjuvanted HA 10 μg, 0.1 mg/kg 3M-052 SC) | agonist activity, human TLR7 (human TLR7) | CXCL8, CXCL10, CCL2 and GM-CSF production (multiplex) [2, 3] | production of IL-1β, L-6, IL-10, and IL-12p40 (multiplex) [2, 3] | IFNγ production in newborn blood relative to similarly treated adult blood ([2]; 10 μM) | TNF production in newborn cord blood versus adult ([2]; 6 hours) | IFNγ production ([2]; newborn blood, 10 μM, 6 hours) | induction of IFNγ ([2]; newborn cord blood, 6 hours) | expression of CD123, HLA-D, CD80 and CD86 (adult human PBMCs; 24 h, compared to unstimulated cells, flow cytometry) | cytokine skewing (adult human PBMCs; adult PBMCs)
CCCCCCCCCCCCCCCCCC(=O)NCCCCOn1c(CCCC)nc2c(N)nc3ccccc3c21 [3M-052, N-[4-[(4-amino-2-butyl-1H-imidazo[4,5-c]quinolin-1-yl)oxy]butyl]octadecanamide] | enhances antigen-specific IgG levels | markedly enhances | Dual agonist activity |  |  |  |  |  |  |  | 
CCCCc1nc2c(N)nc3ccccc3c2n1CCO [CRX-649] |  |  |  | greater CRX-649 induced production in newborn blood | concentration-dependent production | twice | more than adult-like age-specific potency and effectiveness | ~1200 pg/mL | greatest potency, effectiveness and IFNγ polarization | increased expression | pro-inflammatory biased
